Reference: ChEMBL document CHEMBL1221366, “Pitucamycin: structural merger of a phenoxazinone with an epoxyquinone antibiotic” (J Nat Prod, 2010)
Calls of active or inactive are those of the source. The calls are words filed in the database; no cut-off is given here.

Legend:
[1] = Antiproliferative activity against HUVEC assessed as inhibition of cell growth; format: cell-based; details: human, HUVEC cells
K562 = assay: Antiproliferative activity against human K562 cells assessed as inhibition of cell growth; format: functional
HeLa = assay: Cytotoxicity against human HeLa cells; format: functional
Bacillus subtilis = assay: Antimicrobial activity against Bacillus subtilis 6633 B1 by agar diffusion assay; format: functional, organism-based
Staphylococcus aureus [2] = assay: Antimicrobial activity against Staphylococcus aureus 511 B3 by agar diffusion assay; format: functional, organism-based
Mycolicibacterium vaccae = assay: Antimicrobial activity against Mycobacterium vaccae 10670 M4 by agar diffusion assay; format: functional, organism-based
[3] = tested on: Sporobolomyces salmonicolor; assay: Antimicrobial activity against Sporidiobolus salmonicolor 549 H4 by agar diffusion assay; format: functional, organism-based
Enterococcus faecalis = assay: Antimicrobial activity against vancomycin-resistant Enterococcus faecalis 1528 R10 by agar diffusion assay; format: functional, organism-based
Staphylococcus aureus [4] = assay: Antimicrobial activity against methicillin-resistant Staphylococcus aureus 134/93R9 by agar diffusion assay; format: functional, organism-based
Penicillium chrysogenum = assay: Antimicrobial activity against Penicillium notatum JP36 P1 by agar diffusion assay; format: functional, organism-based
Pseudomonas aeruginosa = assay: Antimicrobial activity against Pseudomonas aeruginosa SG137 B7 by agar diffusion assay; format: functional, organism-based
Candida albicans = assay: Antimicrobial activity against Candida albicans H8 by agar diffusion assay; format: functional, organism-based
Escherichia coli = assay: Antimicrobial activity against Escherichia coli 458 B4 by agar diffusion assay; format: functional, organism-based
MCF7 = assay: Antiproliferative activity against human MCF7 cells assessed as inhibition of cell growth; format: functional
THP-1 = assay: Antiproliferative activity against human THP1 cells assessed as inhibition of cell growth; format: functional
Raji = assay: Antiproliferative activity against human Raji cells assessed as inhibition of cell growth; format: functional
HepG2 = assay: Antiproliferative activity against human HepG2 cells assessed as inhibition of cell growth; format: functional
HEK293 = assay: Antiproliferative activity against human HEK293 cells assessed as inhibition of cell growth; format: functional

Row | SMILES | GI50 [1] | GI50 (K562) | CC50 (HeLa) | Activity (Bacillus subtilis) | Activity (Staphylococcus aureus [2]) | Activity (Mycolicibacterium vaccae) | Activity [3] | Activity (Enterococcus faecalis) | Activity (Staphylococcus aureus [4]) | Activity (Penicillium chrysogenum) | Activity (Pseudomonas aeruginosa) | Activity (Candida albicans) | Activity (Escherichia coli) | GI50 (MCF7) | GI50 (THP-1) | GI50 (Raji) | GI50 (HepG2) | GI50 (HEK293)
1 | CC(=O)N[C@@H](CSc1c2nc3cc(C(=O)O)ccc3oc-2cc(=O)c1N)C(=O)O [GRIXAZONE B] | > 120 µM | > 76.4 µM | > 120 µM |  |  |  |  |  |  |  |  |  |  |  |  |  |  | 
2 | NC(=O)C1=C(N)[C@@H](O)[C@H](O)[C@@H](Nc2cc3nc4cc(CO)ccc4oc-3cc2=O)C1=O [PITUCAMYCIN] | 36.6 µM | 27.6 µM | 74.8 µM | inactive | inactive | inactive | inactive | inactive | inactive | inactive | inactive | inactive | inactive |  |  |  |  | 
3 | O=C(CO)Nc1cc2nc3cc(CO)ccc3oc-2cc1=O [CHANDRANANIMYCIN D] | 5.3 µM | 16.6 µM | 90.6 µM | inactive | inactive | inactive | inactive | inactive | inactive | inactive | inactive | inactive | inactive | 1.3 µM | 27.6 µM | 9.6 µM | 6.6 µM | 10.3 µM
